Results taken from patent publication US20030162206A1, “Ceramide kinase and DNA encoding it” (SANKYO COMPANY, LIMITED, priority 2000, published 2003).

Assays:
[1] = test system: enzyme activity which HEK293 cell has endogenously; test: Phosphorylation activity of lysate of HEK293 cells transfected with only pCR3.1 vector (negative-reaction control); type: biochemical, human; conditions: substance used as substrate; lysate of HEK293 cells expressing only pCR3.1 vector
Method: In order to examine whether the protein of the present invention has ceramide kinase activity, the human embryo kidney cell HEK293 (ATCC CRL-1573) was transfected with the expression vector pCR3.1-CERK1 obtained above. That is, after putting 6×10^5 HEK293 cells per well into a polylysine-coated 6-well plate for tissue culture (manufactured by Iwaki Glass) and incubating at 37° C. for 24 hours, they were transfected with one μg of pCR3.1-CERK 1 by using a transfection reagent (Lipofectamin plus, manufactured by Life technology) according to the directions attached thereto. After the operation for the transfection was finished, cells were cultured at 37° C. for one day and the conditioned medium was removed. Then, the cells were collected by using buffer solution A (10% glycerol, 1 mM dithiothreitol, 1 mM EDTA, 1 mM sodium vanadate, protease inhibitor (Complete™, manufactured by Boeheringer Mannheim), a 200 mM Hepes buffer solution, pH 7.0). By ultrasonication with a probe-type sonicater (Cell Disrupter 200, manufactured by Branson), the collected cells were broken into pieces, and the resulting cell lysate was diluted and then used for measurement of enzyme activity as shown in Example 3. […]
Specifically, 10 μl of 1 mM C6-ceramide prepared by using BSA solution (4 mg/ml) and 10 μl of a mixture of 100 mM magnesium chloride and 2 mM of radiolabeled [^32P]-gamma-ATP (manufactured by NEN) were added to 180 μl of buffer B [1 mM dithiothreitol, 1 mM EDTA, 1 mM sodium vanadate, protease inhibitor (Complete™, manufactured by Boeheringer Mannheim), 1 mM calcium chloride, a 200 mM HEPES buffer solution, pH 7.0] which further contains the protein of the present invention prepared in Example 2, and then incubated at 37° C. for 20 minutes to conduct the ceramide kinase reaction. […] The resulting extract was subjected to centrifugation at 2000×g, and the obtained lower layer (chloroform phase) was developed and analyzed on TLC. […]

[2] = target: T1, protein of the present invention having ceramide kinase activity (hCERK1) (Homo sapiens, UniProt Q8TCT0); test: Measurement of ceramide kinase activity, lysate of HEK293 cells transfected with pCR3.1-CERK1, [32P]-γ-ATP, TLC; type: biochemical; conditions: for Phosphorylation by the protein of the present invention (in words): optimum assay conditions for ceramide kinase; for Ratio of activities (pCR3.1-CERK1/pCR3.1) / Phosphorylation activity, Transformed with pCR3.1-CERK 1: substance used as substrate; for Phosphorylation activity, Transformed with pCR3.1-CERK 1: HEK293 cell lysate, [32P]-γ-ATP, 37° C. 20 minutes, pH 7.0, natural ceramide micellized with octyl glucoside; for Effect on ceramide kinase activity (activated / inhibited): C6-ceramide as substrate, examination of optimum assay conditions
T1 construct: expressed in transfected cells; host or cells: HEK293 (ATCC CRL-1573), transient transfection with pCR3.1-CERK1; sonicated cell lysate
T1 sequence (Q8TCT0 1-537): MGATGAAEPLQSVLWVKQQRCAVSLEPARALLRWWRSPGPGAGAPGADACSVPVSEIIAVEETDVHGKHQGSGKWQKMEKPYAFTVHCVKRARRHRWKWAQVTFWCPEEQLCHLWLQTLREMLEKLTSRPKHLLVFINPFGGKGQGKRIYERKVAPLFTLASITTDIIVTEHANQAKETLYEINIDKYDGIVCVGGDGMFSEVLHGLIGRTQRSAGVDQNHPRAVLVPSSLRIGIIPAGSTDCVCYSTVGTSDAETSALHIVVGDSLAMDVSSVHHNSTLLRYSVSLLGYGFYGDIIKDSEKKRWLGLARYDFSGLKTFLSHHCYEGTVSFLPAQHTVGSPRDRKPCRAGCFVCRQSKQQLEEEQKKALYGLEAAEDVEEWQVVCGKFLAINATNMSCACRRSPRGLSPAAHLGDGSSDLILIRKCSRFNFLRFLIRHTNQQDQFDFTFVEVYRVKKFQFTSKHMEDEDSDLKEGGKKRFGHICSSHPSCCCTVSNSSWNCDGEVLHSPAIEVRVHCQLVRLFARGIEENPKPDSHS
Method: Specifically, the solution containing the protein, HEPES buffer solution (pH 7.0) containing magnesium chloride, EDTA, dithiothreitol, sodium vanadate, and protease inhibitor (for example, Complete (trademark), manufactured by Boehringer Manheim), C6 ceramide dissolved in a substrate (bovine serum albumin (hereinafter referred to as “BSA”)) solution having a concentration of 4 mg/ml or ceramide micellized by using octyl glucoside (a preparation purified from bovine fetal brain, manufactured by Sigma), and radio-labeled ^32P-ATP are mixed and incubated at 37° C. to perform a ceramide kinase reaction. Then, the reaction is stopped by adding 1N hydrochloric acid thereto and chloroform:methanol:concentrated hydrochloric acid (100:200: 1 v/v) is added thereto and extracted. The resultant lower layer (chloroform phase) is developed on thin layer chromatography (hereinafter referred to as “TLC”), and analyzed. The ceramide kinase activity can be determined by quantifying the spot in said TLC corresponded to ceramide-1-phosphate (hereinafter referred to as “Cer-1-P”) which is a product.
That is, after putting 6×10^5 HEK293 cells per well into a polylysine-coated 6-well plate for tissue culture (manufactured by Iwaki Glass) and incubating at 37° C. for 24 hours, they were transfected with one μg of pCR3.1-CERK 1 by using a transfection reagent (Lipofectamin plus, manufactured by Life technology) according to the directions attached thereto. After the operation for the transfection was finished, cells were cultured at 37° C. for one day and the conditioned medium was removed. Then, the cells were collected by using buffer solution A (10% glycerol, 1 mM dithiothreitol, 1 mM EDTA, 1 mM sodium vanadate, protease inhibitor (Complete™, manufactured by Boeheringer Mannheim), a 200 mM Hepes buffer solution, pH 7.0). By ultrasonication with a probe-type sonicater (Cell Disrupter 200, manufactured by Branson), the collected cells were broken into pieces, and the resulting cell lysate was diluted and then used for measurement of enzyme activity as shown in Example 3.
Specifically, 10 μl of 1 mM C6-ceramide prepared by using BSA solution (4 mg/ml) and 10 μl of a mixture of 100 mM magnesium chloride and 2 mM of radiolabeled [^32P]-gamma-ATP (manufactured by NEN) were added to 180 μl of buffer B [1 mM dithiothreitol, 1 mM EDTA, 1 mM sodium vanadate, protease inhibitor (Complete™, manufactured by Boeheringer Mannheim), 1 mM calcium chloride, a 200 mM HEPES buffer solution, pH 7.0] which further contains the protein of the present invention prepared in Example 2, and then incubated at 37° C. for 20 minutes to conduct the ceramide kinase reaction. Next, after stopping the reaction by adding 20 μl of 1 N hydrochloric acid, 800 μl (100:200:1, v/v) of chloroform:methanol:concentrated hydrochloric acid, 250 μl of 2.5 M potassium chloride, and 250 μl of chloroform were added thereto and extracted. The resulting extract was subjected to centrifugation at 2000×g, and the obtained lower layer (chloroform phase) was developed and analyzed on TLC.
That is, a necessary amount of ceramide dissolved in chloroform was dried to be solid under a nitrogen air current, and the buffer solution B which contains 0.2% of octyl glucoside was added thereto, and then subjected to ultrasonication, and finally 100 μM ceramide solution was provided. 90 μl of the mixture of buffer solution B containing the enzyme solution and 10 μl of the mixture consisting of 100 mM magnesium chloride and 2 mM radio-labeled [^32P]-γ-ATP were added to 100 μl of said substrate solution, and then incubated at 37° C. for 20 minutes to perform the ceramide kinase reaction. Extraction of Cer-1-P was conducted by a similar procedure to the above-mentioned.

Compound | Phosphorylation by the protein of the present invention (in words) [2] | Ratio of activities (pCR3.1-CERK1/pCR3.1) [2] | Phosphorylation activity, Transformed with pCR3.1-CERK 1 [2] | Km ([2]; substrate C6-ceramide) | Effect on ceramide kinase activity (activated / inhibited) [2] | Phosphorylation activity, Transformed with pCR3.1 [1]
CCCCCCCCCCCCC/C=C/[C@@H](O)[C@H](CO)NC(=O)CCCCC [C6-ceramide, N-hexanoyl form of D-erythro-sphingosine] | high efficiency | 183 | 1280 pmol/min/mg | 7 µM |  | 7 pmol/min/mg
[Ca+2].[Cl-].[Cl-] [calcium chloride] |  |  |  |  | activated | 
[Cl-].[Cl-].[Mg+2] [magnesium chloride] |  |  |  |  | activated | 
Triton X-100 |  |  |  |  | inhibited | 
phosphatidylserine |  |  |  |  | inhibited | 

Second part, led by results:

Phosphorylation by the protein of the present invention (in words) [2] | Ratio of activities (pCR3.1-CERK1/pCR3.1) [2] | Phosphorylation activity, Transformed with pCR3.1-CERK 1 [2] | Km ([2]; substrate C6-ceramide) | Effect on ceramide kinase activity (activated / inhibited) [2] | Compound | Phosphorylation activity, Transformed with pCR3.1 [1]
hardly phosphorylated | 1 | 50 pmol/min/mg |  |  | CCCCCCCCCCCCC/C=C/[C@@H](O)[C@@H](N)CO [D-erythro-sphingosine] | 50 pmol/min/mg
 |  |  |  | inhibited | C[C@H](CCC(=O)O)[C@H]1CC[C@H]2[C@@H]3[C@H](O)C[C@@H]4C[C@H](O)CC[C@]4(C)[C@H]3C[C@H](O)[C@]12C [cholic acid] | 
hardly phosphorylated | 1 | 150 pmol/min/mg |  |  | diacylglycerol [DG] | 130 pmol/min/mg
